# Experimental data published in patent US20040058428A1 (priority 2002, published 2004).
# Tests used:
# [1] = system: E. coli; format: cell-based, Escherichia coli
# [2] = system: mold colonies; format: cell-based
# [3] = system: 13 diverse bacterial stock species; format: cell-based
# [4] = system: Staphylococcus aureus; format: cell-based
# [5] = system: B. anthracis; format: cell-based, Bacillus anthracis
# [6] = system: non-anthracis gram positive species; format: cell-based
# [7] = system: Klebsiella pneumoniae; format: cell-based
# [8] = system: B. subtilis; format: cell-based
# [9] = system: B. cereus strains; format: cell-based
# [10] = system: Citrobacter freundii; format: cell-based
# [11] = system: B. megaterium; format: cell-based
# [12] = system: B. thuringiensis; format: cell-based
molecule,measurement,setting,value
polymyxin B sulfate,growth of E. coli strains,[1],not inhibited
[H]/N=C(/N)N[C@H]1[C@H](O)[C@@H](O)[C@H](O[C@@H]2O[C@@H](C)[C@](O)(C=O)[C@H]2O[C@@H]2O[C@@H](CO)[C@H](O)[C@@H](O)[C@@H]2NC)[C@@H](N/C(N)=N\[H])[C@@H]1O [streptomycin],growth of E. coli strains,[1],inhibited
C[C@@H]1C[C@@H]([C@H](O)CC2CC(=O)NC(=O)C2)C(=O)[C@@H](C)C1 [cycloheximide],effect on mold contamination,[2],eliminated all mold contamination
same,effect on pattern of bacterial growth,[3],did not alter the pattern of bacterial growth
"O=C([O-])CN(CCN(CC(=O)O)CC(=O)O)CC(=O)[O-].[Na+].[Na+] [EDTA, disodium ethylenediaminetetraacetate]",effect on Staphylococcus aureus growth,[4],no effect
same,effect on B. anthracis growth,[5],undesirably inhibiting
CC(=O)[O-].[Tl+] [thallous acetate],susceptibility of Staphylococcus aureus,[4],completely resistant
same,B. anthracis growth and colony formation,[5],allowed B. anthracis to grow readily and form colonies
same,delay of appearance of visible B. anthracis colonies,[5],delayed approximately one day
same,restriction of growth of non-anthracis gram positive species including some B. cereus strains,[6],not sufficiently restrictive
same,restriction of non-anthracis gram positive spore forming species (including some B. cereus strains),[6],adequately restrictive
CO/N=C(\C(=O)N[C@@H]1C(=O)N2C(C(=O)O)=C(COC(C)=O)CS[C@H]12)c1csc(N)n1 [cefotaxime],growth of Klebsiella pneumoniae,[7],inhibited
same,growth of B. subtilis,[8],inhibited
same,growth of Staphylococcus aureus,[4],inhibited
same,growth of some strains of B. cereus,[9],grow to form colonies
same,growth of Citrobacter freundii,[10],inhibited
same,growth of E. coli,[1],inhibited
same,appearance of B. anthracis colonies,[5],failed to appear
same,growth of B. megaterium,[11],inhibited
same,growth of B. thuringiensis,[12],inhibited
lysostaphin,effect on Staphylococcus aureus growth,[4],severely retarded
same,effect on B. anthracis growth,[5],without affecting
